SMILES strings stand for the structures. In brackets after ≈: the same amount, converted by molar mass.

The results in this text go back to ChEMBL document CHEMBL3045260, “Synthesis, anti-microbial evaluation, and QSAR studies of 4-amino-3-hydroxy-naphthalene-1-sulfonic acid derivatives” (2012).

Common to all, as to type: functional
For assay [1], the system named is Aspergillus niger. Put plainly: Ratio of MFC to MIC for Aspergillus niger MTCC 8189.
In assay [2] the test system is Candida albicans. Put plainly: Ratio of MFC to MIC for Candida albicans MTCC 227.
In assay [3] the test system is Escherichia coli. Put plainly: Ratio of MBC to MIC for Escherichia coli MTCC 1652.
The test system of assay [4] is Bacillus subtilis. The assay can be described thus: Ratio of MBC to MIC for Bacillus subtilis MTCC 2063.
For assay [5], the system named is Aspergillus niger. The assay can be described thus: Fungicidal activity against Aspergillus niger MTCC 8189.
Assay [6] has as its system Staphylococcus aureus. Put plainly: Ratio of MBC to MIC for Staphylococcus aureus MTCC 2901.
In assay [7] the test system is Candida albicans. Put plainly: Fungicidal activity against Candida albicans MTCC 227.
The subject of assay [8] is Escherichia coli. Put plainly: Bactericidal activity against Escherichia coli MTCC 1652.
Assay [9] concerns Bacillus subtilis. Put plainly: Bactericidal activity against Bacillus subtilis MTCC 2063.
The subject of assay [10] is Aspergillus niger. Put plainly: Antifungal activity against Aspergillus niger MTCC 8189 after 7 days by tube dilution method.
The test system of assay [11] is Staphylococcus aureus. The assay can be described thus: Bactericidal activity against Staphylococcus aureus MTCC 2901.
Assay [12] concerns Candida albicans. The assay can be described thus: Antifungal activity against Candida albicans MTCC 227 after 48 hr by tube dilution method.
The subject of assay [13] is Escherichia coli. Put plainly: Antibacterial activity against Escherichia coli MTCC 1652 after 24 hr by tube dilution method.
Assay [14] deals with Bacillus subtilis. Put plainly: Antibacterial activity against Bacillus subtilis MTCC 2063 after 24 hr by tube dilution method.
Assay [15] relates to Staphylococcus aureus. Put plainly: Antibacterial activity against Staphylococcus aureus MTCC 2901 after 24 hr by tube dilution method.

Regarding `O=S(=O)(O)c1cc(O)c(/N=C/c2ccccc2Cl)c2ccccc12`, the Ratio with Aspergillus niger [1], with Candida albicans [2], with Escherichia coli [3], with Bacillus subtilis [4] and in the assay with Staphylococcus aureus [6] was 3 in each case. Further, the MFC in the assay with Aspergillus niger [5] and in the assay on Candida albicans [7] was over 140 µM in each case. For the same compound, the MBC against Escherichia coli [8], against Bacillus subtilis [9] and in the assay on Staphylococcus aureus [11] was over 140 µM in each case. Moreover, the “-logMIC” value is recorded as 1.46 with Aspergillus niger [10]; 1.46 in the assay on Candida albicans [12]; 1.46 in the assay with Escherichia coli [13]; 1.46 in the assay on Bacillus subtilis [14]; 1.16 with Staphylococcus aureus [15].
In the case of `O=[N+]([O-])c1cccc(/C=N/c2c(O)cc(S(=O)(=O)O)c3ccccc23)c1`, the Ratio with Aspergillus niger [1], in the assay with Candida albicans [2], with Escherichia coli [3], in the assay on Bacillus subtilis [4] and in the assay with Staphylococcus aureus [6] was 3 throughout. In addition, the minimum fungicidal concentration (MFC) in the assay on Aspergillus niger [5] and with Candida albicans [7] was over 140 µM each time. The MBC against Escherichia coli [8], in the assay with Bacillus subtilis [9] and in the assay with Staphylococcus aureus [11] was over 140 µM each time. Moreover, the “-logMIC” value in the assay with Aspergillus niger [10] was found to be 1.47; with Candida albicans [12], 1.47; in the assay on Escherichia coli [13] it was 1.47; with Bacillus subtilis [14], 1.47; with Staphylococcus aureus [15] it was 1.17.
For `O=S(=O)(O)c1cc(O)c(/N=C/c2ccc(Cl)cc2)c2ccccc12`, the Ratio in the assay on Aspergillus niger [1], in the assay on Candida albicans [2], in the assay with Escherichia coli [3], with Bacillus subtilis [4] and with Staphylococcus aureus [6] was 3 throughout. Also, the minimal fungicidal concentration (MFC) against Aspergillus niger [5] and with Candida albicans [7] was over 140 µM throughout. Moreover, the MBC in the assay on Escherichia coli [8], against Bacillus subtilis [9] and in the assay with Staphylococcus aureus [11] was over 140 µM in each case. In addition, the “-logMIC” value with Aspergillus niger [10], in the assay on Candida albicans [12], in the assay on Escherichia coli [13], with Bacillus subtilis [14] and in the assay with Staphylococcus aureus [15] was 1.16 each time.
As to `O=S(=O)(O)c1cc(O)c(/N=C/c2ccc(Cl)cc2Cl)c2ccccc12`, the Ratio with Aspergillus niger [1], in the assay on Candida albicans [2], with Escherichia coli [3], in the assay with Bacillus subtilis [4] and in the assay with Staphylococcus aureus [6] was 3 in each case. Further, the MFC against Aspergillus niger [5] and with Candida albicans [7] was over 140 µM in each case. Besides, the MBC against Escherichia coli [8], in the assay with Bacillus subtilis [9] and with Staphylococcus aureus [11] was over 140 µM each time. The “-logMIC” value is 1.5 in the assay on Aspergillus niger [10]; 1.5 in the assay on Candida albicans [12]; 1.5 in the assay with Escherichia coli [13]; 1.5 in the assay with Bacillus subtilis [14]; 1.2 with Staphylococcus aureus [15].
Consider `COc1ccc(/C=N/c2c(O)cc(S(=O)(=O)O)c3ccccc23)cc1`, for which the Ratio in the assay on Aspergillus niger [1], in the assay on Candida albicans [2], in the assay with Escherichia coli [3], in the assay with Bacillus subtilis [4] and in the assay on Staphylococcus aureus [6] was 3 in each case. Also, the results for the minimal fungicidal concentration (MFC) in the assay on Aspergillus niger [5] and in the assay on Candida albicans [7] were 130 µM (≈ 46.5 µg/mL) and over 130 µM, respectively. Further, the MBC in the assay on Escherichia coli [8], against Bacillus subtilis [9] and against Staphylococcus aureus [11] was over 130 µM throughout. Further, the “-logMIC” value with Aspergillus niger [10] is on record as 1.46; in the assay with Candida albicans [12], 1.46; with Escherichia coli [13], 1.46; in the assay with Bacillus subtilis [14] it was 1.46; in the assay with Staphylococcus aureus [15], 1.16.

The term MFC denotes the lowest tested concentration that kills the fungus rather than only halting it. High values mean less potent killing, low ones more potent killing. In general, MBC refers to the lowest tested concentration that kills the bacteria rather than only halting them. High values mean less potent killing, low ones more potent killing.
